From patent US9133139B2, “Fluoroalkyl-1,4-benzodiazepinone compounds” (BRISTOL-MYERS SQUIBB COMPANY, priority 2012, dated 2015)

Experiments:
[1] = Human metabolic stability half-life assay (liver microsomes); format: in vitro ADME; conditions: pH 7.4, human liver microsomes, CYP-mediated (NADPH-dependent), 0.5 μM compound, 45-minute time course, read-out: HLM (t1/2, min)
Protocol: Metabolic Stability Half-Life Panel
Result Interpretation Guideline
Incubation with Liver Microsomes
Sample Analysis—Instrumentation

human Notch 1 = experiment: Notch-CBF1 Transactivation Assay (luciferase reporter, transfected HeLa cells), Notch 1; format: cell-based; conditions: read-out: Notch 1 (IC50); HeLa cells transfected with truncated Notch 1 and CBF1 luciferase reporter, 18 hours incubation
Text: Notch-CBF1 Transactivation Assay
The Notch-CBF1 (C-promoter binding factor I) cell based transactivation assay is based on the ability of the released Notch intracellular domain fragments (NICDs) to function as transcription factors in conjunction with CBF1 and other nuclear factors. Luciferase assays were used to measure the antagonism of Notch-CBF1 transcriptional activity. HeLa cervical cancer cells are transiently co-transfected with pCDNA3.1/Hygro plasmids containing truncated Notch 1, Notch 2, Notch 3, or Notch 4 receptors and a PGL3 luciferase reporter vector containing 4 copies of CBF1 binding site. The cells were then tested for Notch-CBF1 activity in the absence or presence of test compounds. HeLa cells, maintained in DMEM (high glucose with HEPES), 1× glutamine/penicillin/streptomycin and 10% Fetal Bovine serum, were transiently transfected in a T175 Flask (4.5×10^6 cells/flask) using the Monster Transfection Kit (Minis #MIR2906) according to manufacturers specifications. Table 2 denotes respective DNA quantity for the transfections.
Assay media (5 μL) containing test compounds in final concentrations ranging from 5 μM to 8.4×10^−5 μM (3 fold serial dilutions) were added to the cells and the cell plates were then incubated for 18 hours at 37° C. and 5% CO2. Control wells contained DMSO vehicle (total counts) or 0.5 μM of an in-house small molecule inhibitor (background counts). Duplicates were used for each sample. Luciferase activity was measured after a 20-minute incubation with 50 μl STEADY-GLO® luciferase reagents according to manufacturer's specifications (Promega, Cat. #E2550) and analyzed by Envision plate reader (PerkinElmer, Boston, Mass.).
The antagonist effect of compounds was expressed as 100×[1−(average sample−average background)/(average total−average background)] where sample is the luciferase activity in the presence of test compound, background is equal to the luciferase activity in the presence of the small molecule inhibitor control and the total is signal induced in DMSO wells.

Compound: CCC[C@H](C(N)=O)[C@@H](CC(C)C)C(=O)N[C@H]1N=C(c2ccccc2)c2ccccc2N(C)C1=O [Comparative Compound 37, reference compound]
- half-life at 0.5 μM [1]: ≤ 8 min

Compound: C=CC[C@H](C(N)=O)[C@@H](CC(C)C)C(=O)N[C@H]1N=C(c2ccccc2)c2cc(Cl)ccc2N(C)C1=O [Comparative Compound 38, reference compound]
- half-life at 0.5 μM [1]: ≤ 8 min

Compound: CCCC[C@H](C(N)=O)[C@@H](CC(C)C)C(=O)N[C@H]1N=C(c2ccc(Cl)cc2)c2ccccc2N(C)C1=O [Comparative Compound 39, reference compound]
- half-life at 0.5 μM [1]: ≤ 8 min

Compound: C=CC[C@H](C(N)=O)[C@@H](CC(C)C)C(=O)N[C@H]1N=C(c2ccccc2)c2ccccc2N(CCC)C1=O [Comparative Compound 40, reference compound]
- half-life at 0.5 μM [1]: ≤ 8 min

Compound: Cc1nocc1[C@H](C(N)=O)[C@@H](CCC(F)(F)F)C(=O)N[C@H]1N=C(c2ccccc2)c2ccccc2N(C)C1=O [Example 6, (2R,3R)—N1-((S)-1-Methyl-2-oxo-5-phenyl-2,3-dihydro-1H-benzo[e][1,4]diazepin-3-yl)-3-(3-methylisoxazol-4-yl)-2-(3,3,3-trifluoropropyl)succinamide]
- half-life at 0.5 μM [1]: ≥ 30 min

Compound: Cc1nocc1[C@H](C(N)=O)[C@@H](CCC(F)(F)F)C(=O)N[C@H]1N=C(c2ccccc2)c2ccccc2NC1=O [Example 9]
- half-life at 0.5 μM [1]: ≥ 30 min

Compound: Cc1nocc1[C@H](C(N)=O)[C@@H](CCC(F)(F)F)C(=O)N[C@H]1N=C(c2ccccc2)c2ccccc2N(c2ccccn2)C1=O [Example 11, (2R,3R)-3-(3-Methyl-4-isoxazolyl)-N-((3S)-2-oxo-5-phenyl-1-(2-pyridinyl)-2,3-dihydro-1H-1,4-benzodiazepin-3-yl)-2-(3,3,3-trifluoropropyl)succinamide]
- half-life at 0.5 μM [1]: ≥ 30 min
- IC50 (human Notch 1): 0.0129 µM

Compound: NC(=O)[C@@H](c1ccccc1)[C@@H](CCC(F)(F)F)C(=O)N[C@H]1N=C(c2ccccc2)c2ccccc2N(c2ccccn2)C1=O [Example 12, (2R,3R)—N-((3S)-2-Oxo-5-phenyl-1-(2-pyridinyl)-2,3-dihydro-1H-1,4-benzodiazepin-3-yl)-3-phenyl-2-(3,3,3-trifluoropropyl)succinamide]
- IC50 (human Notch 1): 0.0136 µM

Compound: Cc1nocc1[C@H](C(N)=O)[C@@H](CCC(F)(F)F)C(=O)N[C@H]1N=C(c2ccccc2)c2cc3c(cc2NC1=O)OCO3 [Example 13, (2R,3R)-3-(3-Methyl-4-isoxazolyl)-N-((7S)-6-oxo-9-phenyl-6,7-dihydro-5H-[1,3]dioxolo[4,5-h][1,4]benzodiazepin-7-yl)-2-(3,3,3-trifluoropropyl)succinamide]
- half-life at 0.5 μM [1]: ≥ 30 min

Compound: COc1ccc(N2C(=O)[C@@H](NC(=O)[C@H](CCC(F)(F)F)[C@@H](C(N)=O)c3conc3C)N=C(c3ccccc3)c3ccccc32)nc1 [Example 14, (2R,3R)—N-((3S)-1-(5-Methoxy-2-pyridinyl)-2-oxo-5-phenyl-2,3-dihydro-1H-1,4-benzodiazepin-3-yl)-3-(3-methyl-4-isoxazolyl)-2-(3,3,3-trifluoropropyl)succinamide]
- half-life at 0.5 μM [1]: ≥ 30 min

Compound: COc1ccc(N2C(=O)[C@@H](NC(=O)[C@H](CCC(F)(F)F)[C@@H](C(N)=O)c3ccccc3)N=C(c3ccccc3)c3ccccc32)nc1 [Example 15, (2R,3R)—N-((3S)-1-(5-Methoxy-2-pyridinyl)-2-oxo-5-phenyl-2,3-dihydro-1H-1,4-benzodiazepin-3-yl)-3-phenyl-2-(3,3,3-trifluoropropyl)succinamide]
- IC50 (human Notch 1): 0.0178 µM

Compound: COc1cccc(N2C(=O)[C@@H](NC(=O)[C@H](CCC(F)(F)F)[C@@H](C(N)=O)c3ccccc3)N=C(c3ccccc3)c3ccccc32)n1 [Example 16, (2R,3R)—N-((3S)-1-(6-Methoxy-2-pyridinyl)-2-oxo-5-phenyl-2,3-dihydro-1H-1,4-benzodiazepin-3-yl)-3-phenyl-2-(3,3,3-trifluoropropyl)succinamide]
- IC50 (human Notch 1): 0.0164 µM

Compound: Cc1nocc1[C@H](C(N)=O)[C@@H](CCC(F)(F)F)C(=O)N[C@H]1N=C(c2ccccc2)c2cccc(Cl)c2NC1=O [Example 17, (2R,3R)—N1-((S)-9-Chloro-2-oxo-5-phenyl-2,3-dihydro-1H-benzo[e][1,4]diazepin-3-yl)-3-(3-methylisoxazol-4-yl)-2-(3,3,3-trifluoropropyl)succinamide]
- half-life at 0.5 μM [1]: ≥ 30 min

Compound: COc1cccc2c1NC(=O)[C@@H](NC(=O)[C@H](CCC(F)(F)F)[C@@H](C(N)=O)c1conc1C)N=C2c1ccccc1 [Example 20, (2R,3R)—N1-((S)-9-Methoxy-2-oxo-5-phenyl-2,3-dihydro-1H-benzo[e][1,4]diazepin-3-yl)-3-(3-methylisoxazol-4-yl)-2-(3,3,3-trifluoropropyl)succinamide]
- half-life at 0.5 μM [1]: ≥ 30 min

Compound: Cc1cccc2c1NC(=O)[C@@H](NC(=O)[C@H](CCC(F)(F)F)[C@@H](C(N)=O)c1conc1C)N=C2c1cccc(C(F)(F)F)c1 [Example 28, (2R,3R)—N1-((S)-9-Methyl-2-oxo-5-(3-(trifluoromethyl)phenyl)-2,3-dihydro-1H-benzo[e][1,4]diazepin-3-yl)-3-(3-methylisoxazol-4-yl)-2-(3,3,3-trifluoropropyl)succinamide]
- half-life at 0.5 μM [1]: ≥ 30 min

Compound: Cc1cccc2c1NC(=O)[C@@H](NC(=O)[C@H](CCC(F)(F)F)[C@@H](C(N)=O)c1ccccc1)N=C2c1cccc(C(F)(F)F)c1 [Example 29, (2R,3R)—N1-((S)-9-Methyl-2-oxo-5-(3-(trifluoromethyl)phenyl)-2,3-dihydro-1H-benzo[e][1,4]diazepin-3-yl)-3-phenyl-2-(3,3,3-trifluoropropyl)succinamide]
- half-life at 0.5 μM [1]: ≥ 30 min

Compound: Cc1cccc2c1NC(=O)[C@@H](NC(=O)[C@H](CCC(F)(F)F)[C@@H](C(N)=O)c1conc1C)N=C2c1cccc(Cl)c1 [Example 32, (2R,3R)—N1-((S)-5-(3-Chlorophenyl)-9-methyl-2-oxo-2,3-dihydro-1H-benzo[e][1,4]diazepin-3-yl)-3-(3-methylisoxazol-4-yl)-2-(3,3,3-trifluoropropyl)succinamide]
- half-life at 0.5 μM [1]: ≥ 30 min

Compound: Cc1cccc2c1NC(=O)[C@@H](NC(=O)[C@H](CCC(F)(F)F)[C@@H](C(N)=O)c1ccccc1)N=C2c1cccc(C(F)F)c1 [Example 34, (2R,3R)—N1-((S)-5-(3-(Difluoromethyl)phenyl)-9-methyl-2-oxo-2,3-dihydro-1H-benzo[e][1,4]diazepin-3-yl)-3-phenyl-2-(3,3,3-trifluoropropyl)succinamide]
- half-life at 0.5 μM [1]: ≥ 30 min

Compound: NC(=O)[C@@H](c1ccccc1)[C@@H](CCC(F)(F)F)C(=O)N[C@H]1N=C(c2cccc(F)c2)c2cccc(OC3CC3)c2NC1=O [Example 35, (2R,3R)—N1-((S)-9-Cyclopropoxy-5-(3-fluorophenyl)-2-oxo-2,3-dihydro-1H-benzo[e][1,4]diazepin-3-yl)-3-phenyl-2-(3,3,3-trifluoropropyl)succinamide]
- half-life at 0.5 μM [1]: ≥ 30 min

Compound: COc1cccc2c1NC(=O)[C@@H](NC(=O)[C@H](CCC(F)(F)F)[C@@H](C(N)=O)c1ccc(Cl)cc1)N=C2c1ccccc1 [Example 36, (2R,3R)-3-(4-Chlorophenyl)-N1-((S)-9-methoxy-2-oxo-5-phenyl-2,3-dihydro-1H-benzo[e][1,4]diazepin-3-yl)-2-(3,3,3-trifluoropropyl)succinamide]
- half-life at 0.5 μM [1]: ≥ 30 min
